Patent US6984643B2, “2,5-substituted pyrimidine derivatives-CCR-3 receptor antagonists” (Roche Palo Alto LLC, priority 2002, dated 2006)

Target: T1, CCR-3 receptor (Homo sapiens, UniProt P51677)
T1 construct: expressed in transfected cells; host or cells: L1.2 (murine pre-B lymphoma line)
T1 sequence (P51677 1-355): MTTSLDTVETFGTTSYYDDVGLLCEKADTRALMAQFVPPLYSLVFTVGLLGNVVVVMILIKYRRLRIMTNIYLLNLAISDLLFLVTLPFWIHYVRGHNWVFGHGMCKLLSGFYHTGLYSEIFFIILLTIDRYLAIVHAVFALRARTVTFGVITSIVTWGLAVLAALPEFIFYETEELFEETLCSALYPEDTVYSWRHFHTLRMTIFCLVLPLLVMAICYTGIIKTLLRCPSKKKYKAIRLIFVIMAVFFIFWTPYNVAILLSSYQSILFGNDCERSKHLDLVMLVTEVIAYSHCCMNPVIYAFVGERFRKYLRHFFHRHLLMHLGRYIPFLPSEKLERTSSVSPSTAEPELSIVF
Assay: CCR-3 Receptor Binding Assay in vitro (inhibition of 125I eotaxin binding to CCR-3 L1.2 transfectant cells)
Settings: concentration reducing 125I-eotaxin binding to CCR-3 L1.2 transfected cells by 50%; read-out: CCR-3 IC50
Protocol: The CCR-3 antagonistic activity of the compounds of the invention was determined by their ability to inhibit the binding of ^125I eotaxin to CCR-3 L1.2 transfectant cells (see Ponath, P. D. et al., J. Exp. Med., Vol. 183, 2437-2448, (1996)).
The assay was performed in Costar 96-well polypropylene round bottom plates. Test compounds were dissolved in DMSO and then diluted with binding buffer (50 mM HEPES, 1 mM CaCl2, 5 mM MgCl2, 0.5% bovine serum albumin (BSA), 0.02% sodium azide, pH 7.24) such that the final DMSO concentration was 2%. Each well was filled with 25 μl of the test solution or only buffer with DMSO (control samples) followed by the addition of 25 μl of ^125I-eotaxin (100 pmol) (NEX314, New England Nuclear, Boston, Mass.) and 1.5×10^5 of the CCR-3 L1.2 transfected cells in 25 μl binding buffer. The final reaction volume was 75 μl.
After incubating the reaction mixture for 1 h at room temperature, the reaction was terminated by filtering the reaction mixture through polyethylenimine treated Packard Unifilter GF/C filter plate (Packard, Chicago, Ill.). The filters were washed four times with ice cold wash buffer containing 10 mM HEPES and 0.5M sodium chloride (pH 7.2) and dried at 65° C. for approximately 10 min. 25 μl/well of Microscint-20™ scintillation fluid (Packard) was added and the radioactivity retained on the filters was determined by using the Packard TopCount™.
The IC50 value (concentration of test compound required to reduce ^125I-eotaxin binding to the CCR-3 L 1.2 transfected cells by 50%) for compounds in Table I of the invention was between 0.02 and 200 μM, preferably between 0.02 and 10 μM.

Row | IC50 [µM] | Compound
1 | 21 | COc1cc(-c2cnc(OCC(=O)NCC3CCCN(Cc4ccc(Cl)c(Cl)c4)C3)nc2)cc(OC)c1OC (centres unmarked) [Compound 58, N-[1-(3,4-dichloro-benzyl)-piperidin-3-ylmethyl]-2-[5-(3,4,5-trimethoxy-phenyl)-pyrimidin-2-yloxy]-acetamide]
2 | 0.403 | COc1ccc(-c2cnc(CCC(=O)NCC3CCCN(Cc4cccc(Cl)c4Cl)C3)nc2)cc1 (centres unmarked) [Compound 23, N-[1-(2,3-dichloro-benzyl)-piperidin-3-ylmethyl]-3-[5-(4-methoxy-phenyl)-pyrimidin-2-yl]-propionamide]
